Results on 41 compounds are retold here after ChEMBL document CHEMBL1125753, “Absolute structure-cytotoxic activity relationships of steganacin congeners and analogues” (1991).

Values after ≈ are worked out from the molar mass of the structure shown. A value given as a limit tells only on which side of the number the result lay.

Experiment [1] relates to KB. Description: In vitro effective dose to inhibit KB cell growth from a human epidermoid carcinoma. It counts as functional. The note with it: for EC50: Homo sapiens, KB, read-out: ED50 (the source's name).
The test system of experiment [2] is Tetrahymena pyriformis. In words: In vitro minimum inhibition concentration to inhibit the regeneration of cilia in Tetrahymena pyriformis W. The experiment is classed as functional.
Where [3] appears, read: Tetrahymena pyriformis, read-out: MIC.

In turn, `COc1cc(C2c3cc4c(cc3CC3COC(=O)[C@@H]32)OCO4)cc(OC)c1OC` (mixture of isomers) displayed an ED50 in experiment [1] of less than 0.3 µg/mL.
Regarding `COc1cc2c(c(OC)c1OC)-c1cc3c(cc1[C@H](O[C@@H]1O[C@@H](COC(C)=O)[C@@H](OC(C)=O)[C@H](OC(C)=O)[C@@H]1OC(C)=O)[C@H]1COC(=O)[C@@H]1C2)OCO3`, the EC50 in experiment [1] turned out to be 56 µg/mL (≈ 75.2 µM).
As usually defined, the MIC is the smallest concentration in the dilution series that meets the test's criterion for growth inhibition. On to `COc1cc(C[C@@H]2C(=O)OC[C@H]2Cc2ccc3c(c2)OCO3)cc(OC)c1OC` (stereo in doubt; (-)), for which, in experiment [2] (setting [3]), the MIC is more than 20 µg/mL.
Turning to `COc1cc2c(c(OC)c1OC)-c1cc3c(cc1C[C@H]1COC(=O)[C@@H]1C2)OCO3` (stereo in doubt; form 3) [STEGANE], the ED50 in experiment [1] is 94 µg/mL (≈ 236 µM).
`COc1cc2c(c(OC)c1OC)-c1cc3c(cc1[C@H](O[C@@H]1O[C@@H](CO)[C@@H](O)[C@H](O)[C@@H]1O)[C@H]1COC(=O)[C@@H]1C2)OCO3`: in experiment [1], the EC50 was more than 100 µg/mL.
`COc1cc2c(c(OC)c1OC)-c1cc3c(cc1[C@@H](OC(C)=O)[C@H]1COC(=O)[C@@H]1C2)OCO3` (stereo in doubt; form 2): in experiment [2] (setting [3]), the MIC is more than 20 µg/mL. Moreover, the ED50 in experiment [1] turned out to be 61 µg/mL (≈ 134 µM).
`COc1cc2c(c(OC)c1OC)-c1cc3c(cc1C[C@H](COC(C)=O)[C@@H](COC(C)=O)C2)OCO3` (racemic): the EC50 in experiment [1] was 15 µg/mL (≈ 30.8 µM).
In experiment [2], `COc1cc(CC2COCC2Cc2ccc3c(c2)OCO3)cc(OC)c1OC` (stereo in doubt; (+)) [CISBURSERAN] yielded an MIC of 20 µg/mL (≈ 51.8 µM).
`COc1cc2c(c(OC)c1OC)-c1cc3c(cc1[C@H](OC(C)=O)[C@H]1COC(=O)[C@@H]1C2)OCO3` [(-)-STEGANACIN]: the MIC in experiment [2] (setting [3]) was more than 20 µg/mL. In experiment [1], the EC50 is less than 0.3 µg/mL.
Turning to `COc1cc2c(c(OC)c1OC)-c1cc3c(cc1[C@H](OCCN(C)C)[C@H]1COC(=O)[C@@H]1C2)OCO3`, the EC50 in experiment [1] amounted to 1.5 µg/mL (≈ 3.09 µM).
On the same count and under the same terms, the value for `COc1cc2c(c(OC)c1OC)-c1cc3c(cc1[C@H](O[C@@H]1O[C@H]4CO[C@@H](c5cccs5)O[C@H]4[C@H](O)[C@@H]1O)[C@H]1COC(=O)[C@@H]1C2)OCO3` was more than 100 µg/mL.
Regarding `COc1cc2c(c(OC)c1OC)-c1cc3c(cc1C[C@H]1COC(=O)[C@@H]1C2)OCO3` (stereo in doubt; form 4) [STEGANE], the ED50 in experiment [1] came out at 0.47 µg/mL (≈ 1.18 µM).
The compound `COc1cc2c(c(OC)c1OC)-c1cc3c(cc1[C@@H](OC(C)=O)[C@H]1COC(=O)[C@@H]1C2)OCO3` (stereo in doubt; form 1) came in with an ED50 in experiment [1] of 1.75 µg/mL (≈ 3.83 µM).
In the case of `COc1cc([C@@H]2c3cc4c(cc3[C@H](O)[C@H]3COC(=O)[C@H]23)OCO4)cc(OC)c1OC` [PODOFILOX], in experiment [2] (setting [3]), the MIC is more than 20 µg/mL. For the same compound, in experiment [1], the EC50 was less than 0.3 µg/mL.
For `COc1cc2c(c(OC)c1OC)-c1cc3c(cc1C(OC(C)=O)[C@H]1COC(=O)[C@@H]1C2)OCO3` (mixture of isomers), in that order: more than 20 µg/mL and 15.7 µg/mL.
As for `COc1cc(CC2COCC2Cc2ccc3c(c2)OCO3)cc(OC)c1OC` (stereo in doubt; (-)) [CISBURSERAN], the minimum inhibitory concentration (MIC) in experiment [2] (setting [3]) is more than 20 µg/mL.
Consider `COc1cc2c(c(OC)c1OC)-c1cc3c(cc1[C@H](OC(=O)c1ccc(Br)cc1)[C@H]1COC(=O)[C@@H]1C2)OCO3`, for which the EC50 in experiment [1] was 3.9 µg/mL (≈ 6.53 µM).
As for `COc1cc2c(c(OC)c1OC)-c1cc3c(cc1[C@H](O)[C@H]1COC(=O)[C@@H]1C2)OCO3`, in experiment [1], the EC50 came to 0.53 µg/mL (≈ 1.28 µM).
In experiment [1], `COc1cc2c(c(OC)c1OC)-c1cc3c(cc1C[C@H]1COC(=O)[C@@H]1C2)OCO3` (stereo in doubt; form 1) [STEGANE] registered an ED50 of 86 µg/mL (≈ 216 µM).
On the same count and under the same terms, the result for `COc1cc2c(c(OC)c1OC)-c1cc3c(cc1C[C@H]1COC(=O)[C@H]1C2)OCO3` (stereo in doubt; (-)) [PICROSTEGANE] reads 8.8 µg/mL (≈ 22.1 µM).
Turning to `COc1cc2c(c(OC)c1OC)-c1cc3c(cc1C(=O)[C@H]1COC(=O)[C@@H]1C2)OCO3`, the EC50 in experiment [1] was 6.2 µg/mL (≈ 15 µM).
On to `COc1cc2c(c(OC)c1OC)-c1cc3c(cc1C[C@H]1COC(=O)[C@H]1C2)OCO3` (racemic) [PICROSTEGANE], for which the ED50 in experiment [1] worked out at 28 µg/mL (≈ 70.3 µM).
In experiment [1], `COc1cc2c(c(OC)c1OC)-c1cc3c(cc1CC1COC(=O)C1C2)OCO3` (racemic; form 1) had an ED50 of 1.13 µg/mL (≈ 2.84 µM).
With `COc1cc2c(c(OC)c1OC)-c1cc3c(cc1[C@@H](OC(C)=O)C1COC(=O)[C@H]1C2)OCO3` (mixture of isomers) [STEGANACIN], the MIC in experiment [2] (setting [3]) is more than 20 µg/mL. For the same compound, the EC50 in experiment [1] was less than 0.3 µg/mL.
As to `COc1cc(C[C@@H]2C(=O)OC[C@H]2Cc2ccc3c(c2)OCO3)cc(OC)c1OC` (stereo in doubt; (+)), the MIC in experiment [2] is less than 20 µg/mL. The EC50 in experiment [1] is 5.2 µg/mL (≈ 13 µM).
Turning to `COc1cc2c(c(OC)c1OC)-c1cc3c(cc1[C@@H](O)[C@H]1COC(=O)[C@@H]1C2)OCO3`, the EC50 in experiment [1] is 5 µg/mL (≈ 12.1 µM).
On the same count and under the same terms, the result for `COc1cc2c(c(OC)c1OC)-c1cc3c(cc1C[C@H](CO)[C@@H](CO)C2)OCO3` (racemic) reads 75 µg/mL (≈ 186 µM).
With `COc1cc2c(c(OC)c1OC)-c1ccc(OC)c(=O)cc1[C@@H](NC(C)=O)CC2` [COLCHICINE], the MIC in experiment [2] (setting [3]) is more than 20 µg/mL. Besides, in experiment [1], the EC50 is less than 0.3 µg/mL.
Take `COc1cc(C2c3cc4c(cc3CC3COC(=O)[C@@H]32)OCO4)cc(OC)c1OC` (stereo in doubt): in experiment [2] (setting [3]), the MIC was more than 20 µg/mL. In experiment [1], the ED50 worked out at 1.75 µg/mL (≈ 4.39 µM).
Turning to `COc1cc2c(c(OC)c1OC)-c1cc3c(cc1[C@H](C#N)[C@H]1COC(=O)[C@@H]1C2)OCO3`, the EC50 in experiment [1] was determined as 1.52 µg/mL (≈ 3.59 µM).
As to `COc1cc2c(c(OC)c1OC)-c1cc3c(cc1C[C@H]1COC(=O)[C@@H]1C2)OCO3` (stereo in doubt; form 2) [STEGANE], the MIC in experiment [2] (setting [3]) was more than 20 µg/mL. In experiment [1], the ED50 stood at 0.49 µg/mL (≈ 1.23 µM).
Consider `COc1cc2cc(c1Cl)N(C)C(=O)C[C@H](OC(=O)C(C)C)[C@]1(C)O[C@H]1[C@H](C)[C@@H]1C[C@@](O)(NC(=O)O1)[C@H](OC)/C=C/C=C(\C)C2`, for which, in experiment [2] (setting [3]), the MIC is less than 0.5 µg/mL.
On to `COc1cc2c(c(OC)c1OC)-c1cc3c(cc1[C@@H](OC(C)=O)[C@H]1COC(=O)[C@@H]1C2)OCO3` (stereo in doubt; form 3), for which, in experiment [1], the ED50 is 16.6 µg/mL (≈ 36.4 µM).
On to `COc1cc2c(c(OC)c1OC)-c1cc3c(cc1CC1COC(=O)C1C2)OCO3` (racemic; form 3), for which the ED50 in experiment [1] amounted to 1.33 µg/mL (≈ 3.34 µM).
Same read-out and setting: the result for `COc1cc2c(c(OC)c1OC)-c1cc3c(cc1C[C@H]1COC(=O)[C@@H]1C2)OCO3` (racemic) [STEGANE] reads 0.94 µg/mL (≈ 2.36 µM).
Turning to `COc1cc(C[C@H]2C(=O)OCC2Cc2ccc3c(c2)OCO3)cc(OC)c1OC` (mixture of isomers), the MIC in experiment [2] (setting [3]) was more than 20 µg/mL. In experiment [1], the EC50 is 16.8 µg/mL.
Turning to `COc1cc2c(c(OC)c1OC)-c1cc3c(cc1C[C@H]1COC(=O)[C@H]1C2)OCO3` (stereo in doubt; (+)) [PICROSTEGANE], the MIC in experiment [2] (setting [3]) is more than 20 µg/mL. In experiment [1], this compound yielded an ED50 of 32 µg/mL (≈ 80.3 µM).
For `COc1cc2c(c(OC)c1OC)-c1cc3c(cc1C[C@@H]1COC(=O)[C@@H]1C2)OCO3` (stereo in doubt; (-)), in that order: 20 µg/mL (≈ 50.2 µM) and less than 0.3 µg/mL.
For `COc1cc2c(c(OC)c1OC)-c1cc3c(cc1CC1COC(=O)C1C2)OCO3` (racemic; form 2), in that order: more than 20 µg/mL and less than 0.3 µg/mL.
Consider `COc1cc2c(c(OC)c1OC)-c1cc3c(cc1C[C@@H]1COC(=O)[C@@H]1C2)OCO3` (stereo in doubt; (+)), for which, in experiment [2], the minimum inhibitory concentration (MIC) is more than 20 µg/mL. The compound also gave an ED50 in experiment [1] of 4.1 µg/mL (≈ 10.3 µM).
Take `COc1cc2c(c(OC)c1OC)-c1cc3c(cc1[C@H](O)[C@H]1COC(=O)[C@H]1C2)OCO3`: the EC50 in experiment [1] was 16 µg/mL (≈ 38.6 µM).
